# Key:
# [1] = molecular target: T1, human mPGES-1 (Homo sapiens, UniProt O14684); assay: Microsomal prostaglandin E synthase assay; type: biochemical; details: microsomes of CHO-K1 cells transfected with human mPGES-1; PGE2 by EIA; average of at least n=3; read-out: h-CHO (nM); potency expressed as IC50
# T1 construct: made in house; host or cells: CHO-K1 cells, transient transfection; microsomal fraction
# T1 sequence (O14684 1-152): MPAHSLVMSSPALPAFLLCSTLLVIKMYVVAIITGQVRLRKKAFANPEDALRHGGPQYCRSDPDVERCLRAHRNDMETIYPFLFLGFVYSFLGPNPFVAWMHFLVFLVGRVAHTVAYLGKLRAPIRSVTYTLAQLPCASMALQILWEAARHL
# Method: Compounds are tested as inhibitors of prostaglandin E synthase activity in microsomal prostaglandin E synthases, whole cell and in vivo assays. These assays measure prostaglandin E2 (PGE2) synthesis using either Enzymatic Immunoassay (EIA) or mass spectrometry. Cells used for microsomal preparation are CHO-K1 cells transiently transfected with plasmids encoding the human mPGES-1 cDNA. Cells used for cell-based experiments are human A549 (which express human mPGES-1). Guinea pigs are used to test the activity of selected compounds in vivo. In all these assays, 100% activity is defined as the PGE2 production in vehicle-treated samples.
# Prostaglandin E synthase microsomal fractions are prepared from CHO-K1 cells transiently transfected with plasmid encoding the human mPGES-1 cDNA. […] The enzyme reactions are performed in 200 mM KPi pH 7.0, 2 mM EDTA and 2.5 mM GSH-reduced form. […] The reaction is terminated by the addition of SnCl2 in 1N HCl (1 mg/ml final).
# [2] = tested on: human colon tumor cell line; details: cited from earlier work
SMILES,IC50 [1],PGE2 formation [2],cell proliferation [2]
"CC(C)(O)C#Cc1ccc2c(c1)c1cc(Cl)ccc1c1[nH]c(-c3c(F)cccc3C#N)nc21 [Example 14, 2-[9-chloro-6-(3-hydroxy-3-methylbutyl-1-yn-1-yl)-1H-phenanthro[9,10-d]imidazol-2-yl]-3-fluorobenzonitrile]",1.8 nM,,
"N#Cc1cccc(C#N)c1-c1nc2c3ccc(Br)cc3c3cc(Cl)ccc3c2[nH]1 [Example 36, 2-(6-bromo-9-chloro-1H-phenanthro[9,10-d]imidazol-2-yl)isophthalonitrile]",1.2 nM,,
"CC(C)(O)c1ccc2c(c1)c1cc(Br)ccc1c1nc(-c3c(C#N)cccc3C#N)[nH]c21 [Example 87, 2-[6-bromo-9-(1-hydroxy-1-methylethyl)-1H-phenanthro[9,10-d]imidazol-2-yl]isophthalonitrile]",1.9 nM,,
"CC(C)(O)c1ccc2c(c1)c1cc(C#CC3CC3)ccc1c1nc(-c3c(C#N)cccc3C#N)[nH]c21 [Example 88, 2-[6-(cyclopropylethynyl)-9-(1-hydroxy-1-methylethyl)-1H-phenanthro[9,10-d]imidazol-2-yl]isophthalonitrile]",1.3 nM,,
CC(C)c1ccc2c(c1)c(SC(C)(C)C)c(CC(C)(C)C(=O)O)n2Cc1ccc(Cl)cc1 [MK-886],,inhibits,inhibits

# Source: patent US20090192158A1, “Methods for Treating or Preventing Neoplasias” (priority 2006, published 2009)
